Source: patent publication US20260306527A1, “PRMT INHIBITOR COMPOUNDS AND THE USES THEREOF” (Purdue Research Foundation, priority 2023, published 2026)
Entries after “also recorded” stand apart in the source; their conditions may differ. One block for each compound: values may come before it.

Assays:
[1] = target: T1, PRMT1 (Homo sapiens, UniProt Q99873); experiment: SAHH-coupled fluorescence assay, inhibition of PRMT1; format: biochemical
T1 construct: made in house
Outline: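 PRMT1 (0.1 μM) was run with 10 μM AdoMet, 5 μM SAHH and 10 μM ThioGlo4 in 2.5 mM HEPES pH 7.0, 25 mM NaCl, 25 μM EDTA, 50 μM TCEP and 0.01% Triton X-100. Fluorescence (ex 400/em 465 nm) was monitored for 15 min. Assays were done in duplicate.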

[2] = test system: PRMT3; experiment: SAHH-coupled fluorescence assay, inhibition of PRMT3; format: biochemical; conditions: read-out: IC50[μM] | PRMT3
Method: A fluorescence-based SAHH-coupled assay was applied to study the inhibition activity of all synthesized compounds on PRMT 1 and 3.
(§1) The PRMT3 methylation assay was performed under the following conditions in a final well volume of 100 μL: 20 mM Tris (pH=7.5), 0.01% Triton X-100, 5 μM SAHH, 0.25 μM PRMT3, 30 μM AdoMet, and 15 μM ThioGlo4. […] Fluorescence was monitored on a BMG CLARIOstar microplate reader with excitation 380 nm and emission 505 nm. Data were processed by using GraphPad Prism software 8.0. All experiments were performed in duplicate.
(§2) Next, the inhibition activity of the library was investigated for five PRMT members from type I PRMTs.
as §1, with “8.0.” for “8.0. All experiments were performed in duplicate.”

[3] = target: T2, PRMT4 (Homo sapiens, UniProt Q86X55); experiment: radioactive assay (Reaction Biology Corp.), inhibition of PRMT4; format: biochemical
T2 sequence (Q86X55 1-608): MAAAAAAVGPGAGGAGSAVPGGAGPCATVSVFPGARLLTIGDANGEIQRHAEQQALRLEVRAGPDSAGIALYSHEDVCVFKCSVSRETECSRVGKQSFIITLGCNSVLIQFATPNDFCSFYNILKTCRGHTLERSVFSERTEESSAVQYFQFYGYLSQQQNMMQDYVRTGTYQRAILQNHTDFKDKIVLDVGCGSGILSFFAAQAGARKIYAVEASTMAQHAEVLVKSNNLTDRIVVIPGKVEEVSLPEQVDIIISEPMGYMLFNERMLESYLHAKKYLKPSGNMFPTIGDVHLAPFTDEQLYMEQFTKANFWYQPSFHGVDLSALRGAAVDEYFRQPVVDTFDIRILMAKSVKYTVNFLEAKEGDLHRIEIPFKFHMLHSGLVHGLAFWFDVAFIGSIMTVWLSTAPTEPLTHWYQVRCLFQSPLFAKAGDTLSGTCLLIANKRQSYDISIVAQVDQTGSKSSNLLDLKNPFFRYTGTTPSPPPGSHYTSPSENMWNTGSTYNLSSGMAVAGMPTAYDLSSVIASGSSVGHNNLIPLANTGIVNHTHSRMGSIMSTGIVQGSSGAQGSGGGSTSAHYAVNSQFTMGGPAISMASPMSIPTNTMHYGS
Method: as §2
(§3) The PRMT 4, 6 and 8 methylation assays were performed by Reaction Biology corp.

[4] = target: PRMT6 (Homo sapiens, UniProt Q96LA8); experiment: radioactive assay (Reaction Biology Corp.), inhibition of PRMT6; format: biochemical
Method: as §2, §3

[5] = target: PRMT8 (Homo sapiens, UniProt Q9NR22); experiment: radioactive assay (Reaction Biology Corp.), inhibition of PRMT8; format: biochemical
Method: as §2, §3

[6] = test system: PRMT3; experiment: selectivity of YD1113/YD1290 on PRMT panel, PRMT3; format: biochemical
Method: (§4) The selectivity of compounds YD1113 and YD1290 on PRMTs were performed by Reaction Biology Corp.
(§5) Next, the selectivity of YD1113 was investigated on a panel of PRMTs at 10 μM.
(§6) After validating the benzyl urea moiety as an unconventional homocysteine mimic of SAH for PRMTs, it was hypothesized that incorporating the benzyl urea moiety into the original pan PRMT inhibitor II757 would build a potent bisubstrate inhibitor. […] To enable a stable tri-substitution, the sulfur atom with a nitrogen atom was replaced. YD1290 was synthesized following the reported methods 9, 15 and tested in a radioactivity assay for PRMTs (FIG. 6b).

[7] = test system: PRMT4; experiment: selectivity of YD1113/YD1290 on PRMT panel, PRMT4; format: biochemical
Method: as §4, §5, §6

[8] = test system: PRMT7; experiment: selectivity of YD1113 on PRMT panel, PRMT7; format: biochemical
Method: as §4, §5

[9] = test system: PRMTs; conditions: cited from earlier work
[10] = target: T3, PRMT3 (Homo sapiens, UniProt O60678); experiment: SAHH-coupled fluorescence assay, inhibition of PRMT3; format: biochemical; set-up: PRMT3 (residues 211-531) was cloned into the pET28a-MHL expression vector; tag of the pET28a-MHL vector (not described); made in house; host or cells: Escherichia coli BL21(DE3)
Outline: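 Coupled SAHH/ThioGlo4 fluorescence read-out (ex 380 nm, em 505 nm) of PRMT3 (0.25 μM) methylation with 30 μM AdoMet and 5 μM SAHH. Buffer was 20 mM Tris pH 7.5 with 0.01% Triton X-100. Run in duplicate.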

[11] = test system: PRMT4/7; conditions: previously reported; cited from earlier work
[12] = test system: PRMT 5/7; conditions: cited from earlier work
[13] = test system: DOT1L; conditions: cited from earlier work
[14] = target: T1, PRMT1; experiment: thermal shift assay PRMT1; format: binding; conditions: 100 μM compound, 10 μM protein
Method: (§7) The fluorescence-based thermal shift assay was performed using a StepOne plus qPCR instrument (Thermal Fisher). For PRMT1, 10 μM of protein was mixed with 2× sypro orange and DMSO, or 100 μM SAM, or 100 μM YD1113, or 100 μM YD1290 in a buffer consisting of 2.5 mM HEPES (pH=7.0), 25 mM NaCl, 25 μM EDTA, 50 μM TCEP, 0.01% Triton X-100. For PRMT3, 20 μM of protein was mixed with 2× sypro orange and DMSO, or 100 μM SAM, or 100 μM YD1113, or 100 μM YD1290 in a buffer consisting of 20 mM Tris (pH=7.5), 0.01% Triton X-100. For PRMT4, 20 μM of protein was mixed with 2× sypro orange and DMSO, or 100 μM SAM, or 100 μM YD1113, or 100 μM YD1290 in a buffer consisting of 20 mM bicine (pH=8.5), 0.01% Triton X-100. All samples were heated from 25° C. to 75° C. at an increased rate of 0.5° C. per minute. Protein denaturation was monitored by the increased fluorescence signal of Sypro Orange, which captures exposed hydrophobic residues during thermal unfolding. The recorded curves were analyzed by the software StepOne plus and plotted in GraphPad Prism 8 software.
(§8) Next, the thermal shift assay (TSA) was conducted as an orthogonal method to examine the effects of YD1290 on the thermal stability of PRMT1, 3, and 4 (Figure S1).

[15] = target: T4, PRMT4 (Homo sapiens, UniProt Q86X55); experiment: thermal shift assay PRMT4; format: binding; conditions: 100 μM compound, 20 μM protein
T4 construct: PRMT4 (residues 140-480) was cloned into the pFBOH-MHL vector; tag of the pFBOH-MHL vector (poly-His implied by Ni-NTA purification; not described); made in house; host or cells: Sf9 insect cells
Method: as §7, §8

[16] = target: T3, PRMT3; experiment: thermal shift assay PRMT3; format: binding; set-up: PRMT3 (residues 211-531) was cloned into the pET28a-MHL expression vector; tag of the pET28a-MHL vector (not described); made in house; host or cells: Escherichia coli BL21(DE3); conditions: 100 μM compound, 20 μM protein
Method: as §7, §8

[17] = target: PRMT7 (Homo sapiens, UniProt Q9NVM4); conditions: cited from earlier work
[18] = test system: PRMT4/5; experiment: inhibition of PRMT4/5 (figure legend); format: biochemical

Chain of PRMT7 (Homo sapiens, UniProt Q9NVM4) (Q9NVM4 whole entry, species assumed): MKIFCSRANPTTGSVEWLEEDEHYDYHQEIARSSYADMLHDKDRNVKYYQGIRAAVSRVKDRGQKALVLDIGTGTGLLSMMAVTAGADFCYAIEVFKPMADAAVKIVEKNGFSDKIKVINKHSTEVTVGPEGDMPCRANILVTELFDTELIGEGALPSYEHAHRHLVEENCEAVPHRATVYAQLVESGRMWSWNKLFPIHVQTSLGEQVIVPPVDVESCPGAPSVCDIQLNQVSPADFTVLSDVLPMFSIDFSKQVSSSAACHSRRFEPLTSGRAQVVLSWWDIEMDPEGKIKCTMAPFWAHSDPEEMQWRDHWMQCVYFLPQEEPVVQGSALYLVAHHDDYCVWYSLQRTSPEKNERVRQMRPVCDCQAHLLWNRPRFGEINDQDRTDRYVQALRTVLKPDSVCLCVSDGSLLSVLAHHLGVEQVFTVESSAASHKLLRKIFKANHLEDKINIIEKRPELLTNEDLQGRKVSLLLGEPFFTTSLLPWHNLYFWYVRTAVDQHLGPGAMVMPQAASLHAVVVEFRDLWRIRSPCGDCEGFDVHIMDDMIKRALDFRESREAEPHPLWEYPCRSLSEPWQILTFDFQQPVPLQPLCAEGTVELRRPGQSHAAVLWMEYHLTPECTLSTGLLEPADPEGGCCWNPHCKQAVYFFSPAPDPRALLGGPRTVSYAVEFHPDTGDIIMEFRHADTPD
T3 sequence (O60678 211-531): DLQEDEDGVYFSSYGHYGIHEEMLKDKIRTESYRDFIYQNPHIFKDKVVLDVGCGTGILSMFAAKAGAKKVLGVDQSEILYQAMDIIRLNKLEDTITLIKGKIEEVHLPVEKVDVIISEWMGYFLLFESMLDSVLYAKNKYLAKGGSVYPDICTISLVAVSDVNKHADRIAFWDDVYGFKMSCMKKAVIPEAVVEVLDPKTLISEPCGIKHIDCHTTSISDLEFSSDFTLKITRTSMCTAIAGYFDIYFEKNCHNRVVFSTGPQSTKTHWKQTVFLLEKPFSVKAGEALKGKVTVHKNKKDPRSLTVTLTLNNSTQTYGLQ
T1 sequence (Q99873 whole entry, species assumed): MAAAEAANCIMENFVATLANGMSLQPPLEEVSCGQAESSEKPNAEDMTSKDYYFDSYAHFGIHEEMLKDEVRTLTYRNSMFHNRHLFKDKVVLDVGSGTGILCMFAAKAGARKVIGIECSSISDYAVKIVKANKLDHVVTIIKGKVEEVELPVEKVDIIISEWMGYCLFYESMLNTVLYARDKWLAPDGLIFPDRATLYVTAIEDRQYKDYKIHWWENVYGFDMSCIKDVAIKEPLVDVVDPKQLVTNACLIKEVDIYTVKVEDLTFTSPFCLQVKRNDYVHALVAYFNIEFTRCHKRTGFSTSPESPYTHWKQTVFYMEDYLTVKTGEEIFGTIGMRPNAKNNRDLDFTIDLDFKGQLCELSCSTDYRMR
Chain of PRMT8 (Q9NR22 whole entry, species assumed): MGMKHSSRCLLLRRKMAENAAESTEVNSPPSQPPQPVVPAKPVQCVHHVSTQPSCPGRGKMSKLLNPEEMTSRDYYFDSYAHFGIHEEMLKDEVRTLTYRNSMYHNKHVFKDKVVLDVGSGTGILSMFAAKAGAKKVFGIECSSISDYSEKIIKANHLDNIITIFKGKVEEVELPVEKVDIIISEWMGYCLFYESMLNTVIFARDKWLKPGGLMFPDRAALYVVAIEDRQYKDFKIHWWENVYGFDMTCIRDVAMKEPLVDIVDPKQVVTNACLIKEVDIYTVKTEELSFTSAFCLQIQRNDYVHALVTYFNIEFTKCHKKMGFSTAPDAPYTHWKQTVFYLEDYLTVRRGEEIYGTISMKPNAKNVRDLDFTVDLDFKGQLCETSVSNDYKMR
Chain of PRMT6 (Q96LA8 whole entry, species assumed): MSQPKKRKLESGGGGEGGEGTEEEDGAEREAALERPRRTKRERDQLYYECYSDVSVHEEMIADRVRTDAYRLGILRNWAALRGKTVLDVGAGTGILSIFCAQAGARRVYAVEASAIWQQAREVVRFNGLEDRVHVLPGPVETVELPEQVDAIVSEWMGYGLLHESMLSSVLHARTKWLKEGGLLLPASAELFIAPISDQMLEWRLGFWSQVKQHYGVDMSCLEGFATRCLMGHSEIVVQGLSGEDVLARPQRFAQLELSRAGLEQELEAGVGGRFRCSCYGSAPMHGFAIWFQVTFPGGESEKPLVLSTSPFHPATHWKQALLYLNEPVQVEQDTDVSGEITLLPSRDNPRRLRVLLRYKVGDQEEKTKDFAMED

inhibition at 10 µM [1]: 94%
IC50 ([1]; read-out: IC50[μM] | PRMT1): 0.08 ± 0.016 µM
IC50 [2]: 2.2 ± 0.29 µM
inhibition at 10 µM [3]: 100%
inhibition at 10 µM [4]: 100%
inhibition at 10 µM [5]: 100%
IC50 [6]: 321 nM
IC50 [7]: 5.05 nM
IC50 [8]: 555 nM
inhibition at 10 µM [10]: 68%
Structure (SMILES): N=C(NCCCSC[C@H]1O[C@@H](n2cnc3c(N)ncnc32)[C@H](O)[C@@H]1O)Nc1cccc(Br)c1 [Compound 5f]
inhibition of all PRMTs [9]: broad and potent inhibition to all PRMTs

inhibition at 10 µM [1]: 65%
inhibition at 10 µM [3]: 99%
inhibition at 10 µM [4]: 46%
inhibition at 10 µM [5]: 73%
inhibition at 10 µM [10]: 22%
Structure (SMILES): Nc1ncnc2c1ncn2[C@@H]1O[C@H](CSCCCNCc2cccc(-c3ccc(Cl)cc3)c2)[C@@H](O)[C@H]1O [Compound 10m]
PRMT4 inhibition [3]: more potent PRMT4 inhibition activity than SGC8158
PRMT4/7 inhibition [11]: potent PRMT4/7 inhibitor

Structure (SMILES): CCNC(=O)NCCSC[C@H]1O[C@@H](n2cnc3c(N)ncnc32)[C@H](O)[C@@H]1O [DS-437]
PRMT 5/7 inhibition [12]: dual inhibition to PRMT 5/7

Structure (SMILES): CC(C)N(CCCNC(=O)Nc1ccc(C(C)(C)C)cc1)C[C@H]1O[C@@H](n2ccc3c(N)ncnc32)[C@H](O)[C@@H]1O [EPZ004777]
selectivity for DOT1L [13]: high selectivity

Structure (SMILES): C[S+](CC[C@H](N)C(=O)O)C[C@H]1O[C@@H](n2cnc3c(N)ncnc32)[C@H](O)[C@@H]1O (stereo partly drawn) [SAM, S-adenosyl-L-methionine, reference compound]
ΔTm PRMT1 [14]: +1.6 °C
ΔTm PRMT4 [15]: +1.9 °C
ΔTm PRMT3 [16]: +1.1 °C

Structure (SMILES): Nc1ncnc2c1ncn2C1OC(CSCCCCNCc2cccc(-c3ccc(Cl)cc3)c2)C(O)C1O (stereo not shown) [SGC8158]
PRMT7 inhibition [17]: selectively inhibits PRMT7; also recorded: selective PRMT7 inhibition; also recorded: selective PRMT7 inhibitor

Structure (SMILES): CC(CN(CCCN)C[C@H]1O[C@@H](n2cnc3c(N)ncnc32)[C@H](O)[C@@H]1O)NC(=O)NCc1ccccc1 (stereo partly shown) [YD1288]
PRMT4/5 inhibition [18]: dual selective and potent PRMT4/5 inhibitor
